Type in all cases: biochemical
For assay [1], the target named is T1, porcine trypsin (Sus scrofa, UniProt P00761).
T1 construct: purchased Merck 8350
As to the kind of experiment: Trypsin inhibition assay with Benzoyl-Arg-pNA as the substrate. The settings on record: for ΔE/10 minutes: control without inhibitor 0.91. Here is the method: (§1) Glu-52-Aprotinin obtained after cleavage with BrCN was compared with authentic aprotinin for its inhibitory activity against porcine trypsin. Both substrates Pyrglu-Gly-Arg-pNA and Benzoyl-Arg-pNa were used for trypsin determination.
(§2) The stock solution for aprotinin was 1 μg/ml, and for Glu-52-aprotinin 0.6 μg/ml. 0-100-200-300-400-500 μl of this stock solutions were used in the test with Benzol-Arg-pNA. In the test with Pyrglu-Gly-Arg-pNA,0-3-6-9-12-15 μl were used.
(§3) Inhibition of trypsin was determined by means of either the substrate benzoyl-DL-arginine-p-nitroanilide (Merck 1670) or pyroglutamyl-glycyl-arginine-p-nitroanilide, which was synthesized from commercially available pyroglutamyl-glycine (SENN 6886) and arginine-p-nitroanilide×HBr (SENN 9123) by means of the dicyclohexyl carbodiimide condensation method. This substrate is also sold under the designation S-2444 by KABI as an urokinase substrate.
(§4) The former has the advantage of giving a linear response to the amount of Aprotinin in the sample, but has a low sensitivity. The latter one has a high sensitivity, but due to the dissociation of the aprotinin-trypsin-complex at those low concentrations, the dose-response-curve is non linear.
(§5) The buffer for the measurement of trypsin and trypsin inhibitors is 0.2M Tris, pH 8.0 containing 0.01M CaCl2 and 0.05% Tween 80®.
(§6) The determinations can be performed in any spectral photometer which allows readings of optical densities (ODs) at 400 nm. For fully automated measurements, the photometers have to be equipped with a micro processor or must be interfaced with a suitable personal computer.
(§7) Disposable 1 cm semi micro plastic cuvettes are used for all assays. ODs are read in time intervals of 1 minute over 8 cycles at ambient temperature. The average increase of OD per minute is arbitrarily taken as the activity unit.
(§8) For inhibition assays, porcine trypsin (Merck 8350) solution (in 0.001N HCl/50% glycerol) is mixed with the inhibitor sample, adjusted to 500 μl with buffer and incubated for 10 minutes at ambient temperature. The reaction is initiated by the addition of substrate solution. Inhibitory activities are taken from a calibration curve or automatically calculated by computer programs developed especially for this purpose. […]

The target of assay [2] is T1, porcine trypsin. As to the kind of experiment: Trypsin inhibition assay with Pyr-Glu-Gly-Arg-pNA as the substrate. Here is the method:
as §1, §2, §3, §4, §5, §6, §7, §8

The target of the next assay is cationic human Trypsin (Homo sapiens, UniProt P07477). As to the kind of experiment: Kinetic studies, Ki by the method of Empie and Laskowski. Here is the method:
(§9) The Ki values were determined by the method of M. W. Empie and M. Laskowski, Jr., Biochem. 21, 2274 (1982).

Another assay deals with anionic human Trypsin (Homo sapiens, UniProt P07478). Described as above. The method, then:
as §9

[3] abbreviates: substrate Benzoyl-Arg-pNA, amount inhibitor per assay 300 ng.
The mark [4] stands for this setting: substrate Pyr-Glu-Gly-Arg-pNA, amount inhibitor per assay 9 ng, control without inhibitor 0.85 (aprotinin), 0.84 (Glu-52-aprotinin).

T1 sequence (P00761 9-231): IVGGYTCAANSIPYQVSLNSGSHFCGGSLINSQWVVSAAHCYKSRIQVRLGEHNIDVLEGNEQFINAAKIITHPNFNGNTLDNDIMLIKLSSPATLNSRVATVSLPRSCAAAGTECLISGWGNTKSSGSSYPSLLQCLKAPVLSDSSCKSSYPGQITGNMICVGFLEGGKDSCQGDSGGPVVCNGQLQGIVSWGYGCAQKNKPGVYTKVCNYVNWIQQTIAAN
anionic human Trypsin, sequence (P07478 24-247): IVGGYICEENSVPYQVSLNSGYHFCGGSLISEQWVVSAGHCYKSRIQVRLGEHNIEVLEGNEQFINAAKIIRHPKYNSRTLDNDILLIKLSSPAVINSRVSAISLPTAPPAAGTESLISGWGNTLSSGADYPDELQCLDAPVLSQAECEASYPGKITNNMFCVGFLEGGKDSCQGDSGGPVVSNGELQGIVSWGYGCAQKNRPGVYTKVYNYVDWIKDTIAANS

Regarding Aprotinin [reference compound], the ΔE/10 minutes at porcine trypsin [1] (substrate Benzoyl-Arg-pNA, amount inhibitor per assay 100 ng) is given as 0.76; on porcine trypsin [1] (substrate Benzoyl-Arg-pNA, amount inhibitor per assay 200 ng), 0.57; on porcine trypsin [1] (setting [3]), 0.39; on porcine trypsin [1] (substrate Benzoyl-Arg-pNA, amount inhibitor per assay 400 ng), 0.08; at porcine trypsin [1] (substrate Benzoyl-Arg-pNA, amount inhibitor per assay 500 ng), 0.00; on porcine trypsin [2] (substrate Pyr-Glu-Gly-Arg-pNA, amount inhibitor per assay 3 ng, control without inhibitor 0.85), 0.62. In addition, the ΔE/10 minutes is given as 0.39 at porcine trypsin [2] (substrate Pyr-Glu-Gly-Arg-pNA, amount inhibitor per assay 6 ng, control without inhibitor 0.85); 0.29 on porcine trypsin [2] (setting [4]); 0.18 at porcine trypsin [2] (substrate Pyr-Glu-Gly-Arg-pNA, amount inhibitor per assay 12 ng, control without inhibitor 0.85); 0.13 at porcine trypsin [2] (substrate Pyr-Glu-Gly-Arg-pNA, amount inhibitor per assay 15 ng, control without inhibitor 0.85).

As to Arg-15-Glu-52-aprotinin, the inhibition constant Ki at cationic human Trypsin and on anionic human Trypsin was less than 0.01 nM in each case.

As to Glu-52-aprotinin, the active molecules contained at porcine trypsin [1] (concluded from the trypsin inhibition dose-response curves against authentic aprotinin) is recorded as roughly 100%. For the same substance, the “trypsin inhibitory activity, dose-response curve compared with aprotinin” value is “identical dose-response curves” on porcine trypsin [1] (substrate Benzoyl-Arg-pNA, FIG. 11) and “identical dose-response curves” on porcine trypsin [2] (substrate Pyr-Glu-Gly-Arg-pNA, FIG. 11). The ΔE/10 minutes on porcine trypsin [1] (substrate Benzoyl-Arg-pNA, amount inhibitor per assay 60 ng) came out at 0.77; on porcine trypsin [1] (substrate Benzoyl-Arg-pNA, amount inhibitor per assay 120 ng), 0.68; on porcine trypsin [1] (substrate Benzoyl-Arg-pNA, amount inhibitor per assay 180 ng) it was 0.58; on porcine trypsin [1] (substrate Benzoyl-Arg-pNA, amount inhibitor per assay 240 ng), 0.44; at porcine trypsin [1] (setting [3]), 0.30; on porcine trypsin [2] (substrate Pyr-Glu-Gly-Arg-pNA, amount inhibitor per assay 1.8 ng, control without inhibitor 0.84), 0.67. Besides, the ΔE/10 minutes at porcine trypsin [2] (substrate Pyr-Glu-Gly-Arg-pNA, amount inhibitor per assay 3.6 ng, control without inhibitor 0.84) was found to be 0.56; on porcine trypsin [2] (substrate Pyr-Glu-Gly-Arg-pNA, amount inhibitor per assay 5.4 ng, control without inhibitor 0.84) it was 0.47; on porcine trypsin [2] (substrate Pyr-Glu-Gly-Arg-pNA, amount inhibitor per assay 7.2 ng, control without inhibitor 0.84), 0.32; at porcine trypsin [2] (setting [4]), 0.28. Further, at porcine trypsin [2] (concluded from the trypsin inhibition dose-response curves), the “equilibrium constants of the trypsin-inhibitor complexes compared with aprotinin” value is reported as “in the same order of magnitude”.

Source of the values: patent publication US5032573A, “Homologs of aprotinin produced from a recombinant host, process, expression vector and recombinant host therefor and pharmaceutical use thereof” (Bayer Aktiengesellschaft, priority 1989, dated 1991).
